In patent US12338203B2 (TAISHO PHARMACEUTICAL CO., LTD., priority 2019, dated 2025):

Target: T1, human LPAR1 (Homo sapiens, UniProt Q92633)
T1 construct: expressed in transfected cells
Assay: Test Example 1: antagonism against response of LPA-induced increase in intracellular Ca2+ concentration in RH7777 cells stably expressing human LPAR1
Assay type: cell-based
Conditions: RH7777 cells stably expressing human LPAR1; Fluo-4 fluorescence, FDSS6000; read-out: IC50 value (concentration producing 50% antagonism against response of LPA-induced increase in intracellular Ca2+ concentration) (converted)
How it was run: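 Ca2+ flux read at 540 nm emission (480 nm excitation) after LPA addition to human LPAR1-expressing RH7777 cells exposed to compound for 30 min, 37 °C, pH 7.4 HEPES-buffered HBSS. Response relative to no-compound control after basal subtraction; IC50 fitted from concentration–response.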

T1 sequence (Q92633 whole entry): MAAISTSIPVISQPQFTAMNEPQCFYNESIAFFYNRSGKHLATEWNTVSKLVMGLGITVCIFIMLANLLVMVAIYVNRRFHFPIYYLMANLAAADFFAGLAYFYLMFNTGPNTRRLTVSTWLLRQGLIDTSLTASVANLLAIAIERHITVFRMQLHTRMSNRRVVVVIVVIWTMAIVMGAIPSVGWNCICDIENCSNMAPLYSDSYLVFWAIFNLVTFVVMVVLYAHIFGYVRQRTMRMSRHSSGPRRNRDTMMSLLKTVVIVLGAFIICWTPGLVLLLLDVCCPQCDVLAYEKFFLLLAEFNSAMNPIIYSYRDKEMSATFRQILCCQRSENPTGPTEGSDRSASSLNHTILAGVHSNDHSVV

Structure (SMILES) | IC50
CCOc1cc(C(C)N(CCO[C@@H](C)c2ccccc2)C(=O)NC2(C(=O)O)CC(OC)C2)c(C)c(OCC)c1C1CC1 (stereo partly shown) [Example 5-203] | 1.33 nM
CCOc1cc(C(C)N(CCOCc2ccccc2)C(=O)NC2(C(=O)O)CC(OC)C2)cc(OCC)c1C1CC1 (stereo not shown) [Example 5-204] | 0.882 nM
CCOc1cc(C(C)N(CCOCc2ccccc2)C(=O)NC2(C(=O)O)CC(OC)C2)c(Cl)c(OCC)c1C(C)=O (stereo not shown) [Example 5-205] | 2.74 nM
CCOc1cc(C(C)N(CCOCc2ccccc2)C(=O)NC2(C(=O)O)CC(OC)C2)c(Cl)c(OCC)c1C1CC1 (stereo not shown) [Example 5-206] | 0.853 nM
CCOc1cc(C(C)N(CCOC(C)c2ccccc2)C(=O)NC2(C(=O)O)CC(OC)C2)c(Cl)c(OCC)c1C1CC1 (stereo not shown) [Example 5-207] | 1.36 nM
CCOc1cc(C(C)N(CCOC(C)c2ccccc2)C(=O)NC2(C(=O)O)CC(OC)C2)c(Cl)c(OCC)c1C(C)=O (stereo not shown) [Example 5-208] | 3.5 nM
CCOc1cc(C(C)N(CCCCc2ccccc2)C(=O)NC2(C(=O)O)CC(OCC)C2)c(Cl)c(OCC)c1C(C)=O (stereo not shown) [Example 5-209] | 2.75 nM
CCOc1cc(C(C)N(CCOCc2ccccc2)C(=O)NC2(C(=O)O)CC(OCC)C2)cc(OCC)c1C1CC1 (stereo not shown) [Example 5-211] | 1.1 nM
CCOc1cc(C(C)N(CCOCc2ccccc2)C(=O)NC2(C(=O)O)CC(OCC)C2)c(Cl)c(OCC)c1C(C)=O (stereo not shown) [Example 5-212] | 1.98 nM
CCOc1cc(C(C)N(CCOCc2ccccc2)C(=O)NC2(C(=O)O)CC(OCC)C2)c(Cl)c(OCC)c1C1CC1 (stereo not shown) [Example 5-213] | 0.847 nM
CCOc1cc(C(C)N(CCOCc2ccccc2)C(=O)N[C@]2(C(=O)O)C[C@@H](OCC)C2)c(C)c(OCC)c1C(C)=O (stereo partly shown) [Example 5-214] | 1.92 nM
CCOc1cc(C(C)N(CCOCc2ccccc2)C(=O)NC2(C(=O)O)CC(OCC)C2)c(C)c(OCC)c1C1CC1 (stereo not shown) [Example 5-215] | 1.01 nM
CCOc1cc(C(C)N(CCO[C@@H](C)c2ccccc2)C(=O)NC2(C(=O)O)CC(OCC)C2)c(Cl)c(OCC)c1C1CC1 (stereo partly shown) [Example 5-216] | 2.56 nM
CCOc1cc(C(C)N(CCO[C@@H](C)c2ccccc2)C(=O)NC2(C(=O)O)CC(OCC)C2)c(C)c(OCC)c1C1CC1 (stereo partly shown) [Example 5-217] | 1.65 nM
CCOc1cc(C(C)N(CCO[C@@H](C)c2ccccc2)C(=O)N[C@]2(C(=O)O)C[C@@H](OCC)C2)c(Cl)c(OCC)c1C(C)=O (stereo partly shown) [Example 5-218] | 1.99 nM
CCOc1cc(C(C)N(CCOCc2ccccc2)C(=O)NC2(C(=O)O)CC(OCC)C2)cc(OCC)c1C1CC1 (stereo not shown) [Example 5-219] | 0.813 nM
CCOc1cc(C(C)N(CCOCc2ccccc2)C(=O)NC2(C(=O)O)CC(OCC)C2)c(Cl)c(OCC)c1C(C)=O (stereo not shown) [Example 5-220] | 2.13 nM
CCOc1cc(C(C)N(CCOCc2ccccc2)C(=O)NC2(C(=O)O)CC(OCC)C2)c(Cl)c(OCC)c1C1CC1 (stereo not shown) [Example 5-221] | 0.695 nM
CCOc1cc(C(C)N(CCO[C@@H](C)c2ccccc2)C(=O)NC2(C(=O)O)CC(OCC)C2)c(Cl)c(OCC)c1C1CC1 (stereo partly shown) [Example 5-222] | 1.79 nM
CCOc1cc(C(C)N(CCO[C@@H](C)c2ccccc2)C(=O)NC2(C(=O)O)CC(OCC)C2)c(Cl)c(OCC)c1C(C)=O (stereo partly shown) [Example 5-223] | 2.08 nM
CCOc1cc(C(C)N(CCOCc2ccccc2)C(=O)NC2(C(=O)O)CCOCC2)cc(OCC)c1C1CC1 (stereo not shown) [Example 5-224] | 0.949 nM
CCOc1cc(C(C)N(CCOCc2ccccc2)C(=O)NC2(C(=O)O)CCOCC2)c(Cl)c(OCC)c1C1CC1 (stereo not shown) [Example 5-225] | 0.809 nM
CCOc1cc(C(C)N(CCOCc2ccccc2)C(=O)NC2(C(=O)O)CCOCC2)c(C)c(OCC)c1C(C)=O (stereo not shown) [Example 5-226] | 4 nM
CCOc1cc(C(C)N(CCOCc2ccccc2)C(=O)NC2(C(=O)O)CCOCC2)c(C)c(OCC)c1C1CC1 (stereo not shown) [Example 5-227] | 0.851 nM
CCOc1cc(C(C)N(CCCCc2ccccc2)C(=O)NC2(C(N)=O)CCCC2)cc(OCC)c1C (stereo not shown) [Example 6-1, 1-({[1-(3,5-Diethoxy-4-Methylphenyl)Ethyl](4-Phenylbutyl) Carbamoyl}Amino)Cyclopentane-1-Carboxamide] | 1890 nM
CCOc1cc(OCC)cc(C(C)N(CCCCc2ccccc2)C(=O)NC2(C(=O)OC)CCCC2)c1 (stereo not shown) [Example 6-2, Methyl 1-({[1-(3,5-Diethoxyphenyl)Ethyl](4-Phenylbutyl) Carbamoyl}Amino)Cyclopentane-1-Carboxylate] | 3760 nM

Structure (SMILES) | IC50
CCOc1cc([C@@H](C)N(CCO[C@@H](C)c2ccccc2)C(=O)NC2(C(=O)OC)CC2)c(Cl)c(OCC)c1C(C)=O [Example 6-3, Methyl 1-[([(1R)-1-(4-Acetyl-2-Chloro-3,5-Diethoxyphenyl)Ethyl]{2-[(1S)-1-Phenylethoxy]Ethyl}Carbamoyl)Amino]Cyclopropane-1-Carboxylate] | 672 nM
CCOc1cc(C(C)N(CCO[C@@H](C)c2ccccc2)C(=O)NC2(C(=O)OC)CC(OCC)C2)cc(OCC)c1C(C)=O (stereo partly shown) [Example 6-4] | 344 nM
CCOc1cc(C(C)N(CCO[C@@H](C)c2ccccc2)C(=O)NC2(C(=O)OC)CC(OCC)C2)c(Cl)c(OCC)c1C(C)=O (stereo partly shown) [Example 6-5] | 272 nM
CCOc1cc(C(C)N(CCO[C@@H](C)c2ccccc2)C(=O)NC2(C(=O)OC)CC(F)(F)C2)cc(OCC)c1C(C)=O (stereo partly shown) [Example 6-6] | 435 nM
CCOc1cc(C(C)N(CCO[C@@H](C)c2ccccc2)C(=O)NC2(C(=O)OC)CC(F)(F)C2)c(Cl)c(OCC)c1C(C)=O (stereo partly shown) [Example 6-7] | 443 nM
CCOC(=O)C1(NC(=O)N(CCO[C@@H](C)c2ccccc2)C(C)c2cc(OCC)c(C(C)=O)c(OCC)c2Cl)CC1 (stereo partly shown) [Example 6-8] | 2840 nM
CCOC(=O)C1(NC(=O)N(CCO[C@@H](C)c2ccccc2)C(C)c2cc(OCC)c(C(C)=O)c(OCC)c2)CC(OCC)C1 (stereo partly shown) [Example 6-9] | 1010 nM
CCOC(=O)C1(NC(=O)N(CCO[C@@H](C)c2ccccc2)C(C)c2cc(OCC)c(C(C)=O)c(OCC)c2Cl)CC(OCC)C1 (stereo partly shown) [Example 6-10] | 1040 nM
CCOC(=O)C1(NC(=O)N(CCO[C@@H](C)c2ccccc2)C(C)c2cc(OCC)c(C(C)=O)c(OCC)c2Cl)CC(F)(F)C1 (stereo partly shown) [Example 6-12] | 1270 nM
CCOc1cc(C(C)N(CCO[C@@H](C)c2ccccc2)C(=O)NC2(C(=O)OC(C)(C)C)CC2)c(Cl)c(OCC)c1C(C)=O (stereo partly shown) [Example 6-13] | 3040 nM
CCOc1cc(C(C)N(CCO[C@@H](C)c2ccccc2)C(=O)NC2(C(=O)OC(C)(C)C)CC(OCC)C2)cc(OCC)c1C(C)=O (stereo partly shown) [Example 6-14] | 3530 nM
CCOc1cc(C(C)N(CCO[C@@H](C)c2ccccc2)C(=O)NC2(C(=O)OC(C)(C)C)CC(OCC)C2)c(Cl)c(OCC)c1C(C)=O (stereo partly shown) [Example 6-15] | 3340 nM
CCOc1cc(C(C)N(CCO[C@@H](C)c2ccccc2)C(=O)NC2(C(=O)OC(C)(C)C)CC(F)(F)C2)cc(OCC)c1C(C)=O (stereo partly shown) [Example 6-16] | 13000 nM
CCOc1cc(C(C)N(CCO[C@@H](C)c2ccccc2)C(=O)NC2(C(=O)OC(C)(C)C)CC(F)(F)C2)c(Cl)c(OCC)c1C(C)=O (stereo partly shown) [Example 6-17] | 10200 nM
CCOc1cc([C@@H](C)N(CCCCc2ccccc2)C(=O)NC2(C(=O)NS(C)(=O)=O)CC(F)(F)C2)cc(OCC)c1C(C)=O [Example 7-1, 1-({[(1R)-1-(4-Acetyl-3,5-Diethoxyphenyl)Ethyl](4-Phenylbutyl) Carbamoyl}Amino)-3,3-Difluoro-N-(Methanesulfonyl)Cyclobutane-1-Carboxamide] | 2.75 nM
CCOc1cc(C(C)N(CCCCc2ccccc2)C(=O)NC2(C(=O)NS(C)(=O)=O)CC(F)(F)C2)cc(OCC)c1C(C)O (stereo not shown) [Example 7-2] | 9.55 nM
CCOc1cc(C(C)N(CCCCc2ccccc2)C(=O)NC2(C(=O)NS(C)(=O)=O)CCCC2)cc(OCC)c1C (stereo not shown) [Example 7-3] | 88.3 nM
CCOc1cc([C@@H](C)N(CCCCc2ccccc2)C(=O)NC2(C(=O)NS(N)(=O)=O)CC(F)(F)C2)cc(OCC)c1C(C)=O [Example 7-4, 1-({[(1R)-1-(4-Acetyl-3,5-Diethoxyphenyl)Ethyl](4-Phenylbutyl) Carbamoyl}Amino)-3,3-Difluoro-N-Sulfamoylcyclobutane-1-Carboxamide] | 3.42 nM
CCOc1cc(C(C)N(CCCCc2ccccc2)C(=O)NC2(C(=O)NS(=O)(=O)N(C)C)CCCC2)cc(OCC)c1C (stereo not shown) [Example 7-5, 1-({[1-(3,5-Diethoxy-4-Methylphenyl)Ethyl](4-Phenylbutyl) Carbamoyl}Amino)-N-(Dimethylsulfamoyl)Cyclopentane-1-Carboxamide] | 272 nM
CCOc1cc(C(C)N(CCCCc2ccccc2)C(=O)NC2(c3nc(=O)o[nH]3)CCCC2)cc(OCC)c1C (stereo not shown) [Example 9-1, N-[1-(3,5-Diethoxy-4-Methylphenyl)Ethyl]-N′-[1-(5-Oxo-2,5-Dihydro-1,2,4-Oxadiazol-3-Yl)Cyclopentyl]-N-(4-Phenylbutyl) Urea] | 506 nM
CCOc1cc([C@@H](C)N(CCO[C@@H](C)c2ccccc2)C(=O)NC2(c3nn[nH]n3)CC2)cc(OCC)c1C(C)=O [Example 10-1, N-[(1R)-1-(4-Acetyl-3,5-Diethoxyphenyl)Ethyl]-N-{2-[(1S)-1-Phenylethoxy]Ethyl}-N′-[1-(2H-Tetrazol-5-Yl)Cyclopropyl]Urea] | 3.22 nM
CCOc1cc(C(C)N(CCCCc2ccccc2)C(=O)NC(C)(C)c2nn[nH]n2)cc(OCC)c1C(C)=O (stereo not shown) [Example 10-2] | 2.48 nM
CCOc1cc(C(C)N(CCCCc2ccccc2)C(=O)NC2(c3nn[nH]n3)CC2)cc(OCC)c1C(C)=O (stereo not shown) [Example 10-3] | 1.9 nM
CCOc1cc(C(C)N(CCCC(F)(F)c2ccccc2)C(=O)NC2(c3nn[nH]n3)CC2)cc(OCC)c1C(C)=O (stereo not shown) [Example 10-4] | 2.63 nM
CCOc1cc(C(C)N(CCOCc2ccccc2)C(=O)NC2(c3nn[nH]n3)CC2)cc(OCC)c1C(C)=O (stereo not shown) [Example 10-5] | 2.85 nM
CCOc1cc(C(C)N(CCCCc2ccccc2)C(=O)NC2(c3nn[nH]n3)CCC2)cc(OCC)c1C(C)=O (stereo not shown) [Example 10-6] | 1.88 nM
